The values below come from patent US8933133B2, “Animal feeds containing polyols” (ADM Alliance Nutrition, Inc., priority 2006, dated 2015).

One data set has as its system rumen fluid. Description: In vitro fermentation of polyols in an artificial rumen environment using rumen fluid as inoculum. Particulars: for extent of fermentation: by 24 hours, judged from final gas volume and VFA; for extent of fermentation / fermentation rate: in words; for fermentation rate: in vitro rumen fermentation, gas production monitored every 30 minutes. How it is done: Fermentations were performed on two separate days where gas production was monitored every 30 minutes. In addition, pH, ammonia (NH3), and volatile fatty acid (“VFA”) production were measured after 24 hours. Duplicate samples of each compound were evaluated using in vitro rumen fermentations.
Duplicate samples of these compounds were fermented in vitro using rumen fluid as inoculum. Samples were weighed into 150 mL serum bottles (0.3 grams per bottle) using a CO2 atmosphere to provide an anaerobic environment. A standard buffered media was prepared (no additional feed matter was included in the fermentation), degassed, and added to the serum bottles (see, Goering, H. K., and P. J. Van Soest, “Forage Fiber Analyses (Apparatus, Reagents, Procedures, and Some Applications),” Agric. Handbook, No 379, ARS-USDA, Washington, D.C., 1970). Rumen fluid was obtained from a dairy cow, filtered, and added to the serum bottles as 20% of the total fluid addition (30 mL total fluid volume). The serum bottles were sealed, placed in an incubator, and the fermentation was allowed to proceed. Fermentations were performed on two separate days, during which time gas production was monitored every 30 minutes and pH, NH3, and VFA production measured after 24 hours.

For data set [1], the system named is circulating non-esterified fatty acids (NEFA). Nature of the data set: Circulating non-esterified fatty acids in lambs fed a polyol supplement. It counts as in vivo. The conditions noted are these: lambs fed restricted diet (75% of maintenance energy requirements), supplement 25 to 45 grams/lamb, blood 1-24 hours after dose.
Description: In this Example, the effect of a diet comprising an isolated or purified polyol on the level of circulating non-esterified fatty acids (“NEFA”) in lambs was examined.
Four lambs were used in this Example. The lambs were fed a basal diet the first week followed by at least 4 weeks during which the supplement treatments were evaluated. The lambs were fed a diet supplement comprising sorbitan during the second and third weeks of the treatment. The lambs were fed a diet supplement comprising polyglycerol during the fourth and fifth weeks of the treatment. The diet supplements were fed separate from the basal diet feed.

`OCC(O)CO` [Glycerol, glycerol]: the extent of fermentation entry with rumen fluid is on record as “largely fermented by 24 hours”.

For the compound `OC[C@@H](O)[C@H]1OC[C@H](O)[C@H]1O` [Sorbitan, 1,4-anhydro-D-sorbitol], in data set [1], the “change in circulating NEFA levels” value is recorded as “decrease in circulating NEFA levels”. Moreover, in the data set on rumen fluid (estimated from rate of in vitro fermentation / gas production, by weight escaping fermentation in the rumen), the rumen escape entry is reported as “greater than 80%”. In addition, the fermentation rate result with rumen fluid is given as “slower than glucose, sorbitol, or glycerol”.

For the compound `OC[C@@H](O)[C@@H](O)[C@H](O)[C@@H](O)CO` [Sorbitol, sorbitol], in the data set with rumen fluid, the extent of fermentation result is given as “largely fermented by 24 hours” and the fermentation rate entry is recorded as “slower than glucose”.
